Data from patent publication US20060183773A1, “Uses of methylphenidate derivatives” (priority 2005, published 2006).

Legend:
Assay type in all cases: cell-based, human
[1] = test system: IL-8; experiment: IL-8 release by TNFα-stimulated HUVECs, ELISA; conditions: HUVECs lot 8710, no TNFα, no additives 207.15
[2] = test system: MEK1; experiment: Custom AntibodyArray, TRiPS cells: MEK1; conditions: 15 μg/ml, 30 minutes
Description: Day 18 TRiPS cells, 1×10^6, were incubated for 30 minutes at 37° C., either with nothing added (“Nil”), with 1 μl CD3/CD28 Dynabeads (Dynal, Oslo, Norway) (“CD3/CD28 beads”) per 100,000 cells, or with CD3/CD28 beads and 15 μg/ml of the compound of formula II (Cpd II). After the incubation, the cells were lysed in Cell-Lytic Mammalian Cell Extraction Reagent (Sigma). After centrifugation to pellet cellular debris, the supernatants (cell extracts) were obtained.
The cell extracts (supernatants) were then analyzed using a Custom AntibodyArray™ manufactured by Hypromatrix Inc., Worcester, Mass., following the manufacturer's instructions. The Custom AntibodyArray™ is a nylon membrane blotted with antibodies to the proteins listed below. Briefly, the cell extracts were incubated with duplicate Custom AntibodyArray™'s for 2 hours at room temperature with slow shaking, followed by three washes with Tris buffer (150 mM NaCl, 25 mM Tris, 0.05% Tween-20, pH 7.5). HRP-labeled antibodies specific for phosphorylated-tyrosine, phosphorylated-serine and phosphorylated-threonine in Tris buffer were added, and the arrays incubated for 2 hours. After three more washes with Tris buffer, a peroxidase-reactive luminescent substrate was added. The arrays were visualized by exposure to X-ray film. Densitometry of the X-ray films was measured by scanning and computer analysis.

[3] = test system: peripheral blood lymphocytes (PBL); experiment: Cell clumping of PHA-stimulated PBL (microscopy); conditions: PBL of donor GR283; 5 μg/ml PHA; compound 5, 15, 50 μg/ml; 24 h pre-incubation + 72 h
Description: Whole blood was drawn from GR283, a human volunteer with known allergies, into a glass vacutainer tube containing no anticoagulant. This blood was allowed to clot, and the serum was removed by centrifugation and then heat inactivated by placing it in a water bath at 56° C. for 30 minutes. Whole blood from GR283 was also drawn into a glass vacutainer tube containing heparin and used for peripheral blood lymphocytes (PBL) isolation as follows. Whole blood was layered over room temperature Histopaque 1077 solution and centrifuged at 2000 rpm for 15 minutes at room temperature. Cells at the plasma-Histopaque interface were then removed and washed with culture medium (IMDM medium with 10% heat-inactivated GR283 serum plus 1% penicillin/streptomycin) at 37° C.
The compound of formula II (see above) and methylphenidate (both obtained from Dr. Jeffrey D. Winkler, University of Pennsylvania, Philadelphia, Pa.) in culture medium were added to wells of a 96-well plate to give final concentrations of 5 μg/ml, 15 μg/ml and 50 μg/ml of the compound of formula II and of methylphenidate. […] Then, GR283's PBL in culture medium were added to the wells to give a final concentration of 150,000 cells per well, and the plates were incubated at 37° C., 5% CO2 for 24 hours. […]

[4] = test system: IL-8; experiment: IL-8 release by LPS-stimulated HUVECs, ELISA; conditions: for IL-8: LPS 200 ng/ml overnight + 15 μg/ml
Description: Passage 4 (i.e., four cell population doublings) human umbilical vein endothelial cells (HUVECs), human source lot number 9713 (obtained from ATCC), were put into the wells of a 48-well tissue culture plate at 20,000 cells/well in 500 μl of endothelial growth medium-2 (EGM-2) complete medium (but without serum or ascorbate) (obtained from Cambrex) supplemented with ITSS (insulin, transferrin and sodium selenite) (obtained from Sigma). Also, passage 4 HUVECs, human source lot number 7016 (obtained from ATCC), were put into the wells of a 48-well tissue culture plate at 20,000 cells/well in 500 μl of EGM-2 complete medium (but without serum or ascorbate) supplemented with ITSS. The following additives were added to the cells: water (vehicle control) and 15 μg/ml of the compound of formula II (Cpd II). After incubation for 1 hour at 37 ° C. and 5% CO2, lipopolysaccharide (LPS) (obtained from Sigma) was added to give a final concentration of 200 ng/ml, and the cells were incubated overnight at 37° C. and 5% CO2. After this incubation, the supernatants were collected, and the amount of IL-8 in the supernatants determined by ELISA as described in Example 4.

[5] = test system: IL-8; experiment: IL-8 release by PHA-stimulated PBL, ELISA; conditions: PBL donor GR-192; 2 μg/ml PHA, 96 h; Cpd II 15 μg/ml, Dex 10 μM; FIG. 8
Description: Whole blood was drawn from GR-192, a normal human volunteer, and processed as described in Example 1 to give heat-inactivated serum and PBL. […] After this incubation, PHA was added to give a final concentration of 2 μg/ml, and the cells were incubated for an additional 96 hours at 37° C., 5% CO2. All cultures were performed in triplicate. Cells were then removed by centrifugation at 1000 rpm for 10 minutes, and the culture medium collected.
Release of IL-8 into the culture medium was measured by ELISA. To perform the ELISA, matched pairs of antibodies against human IL-8 were purchased from Pierce Biotechnology and Biosource, respectively. ELISA strip well plates were coated with 2 μg/ml of antibody to IL-8 (in phosphate-buffered saline (PBS)) overnight at room temperature. The plates were then blocked using a 4% BSA solution in PBS for one hour, followed by the addition of 50 μl of experimental culture medium per well in duplicate. The plates were incubated at room temperature for one hour and then washed using 50 mM Tris pH 8.0 with 0.1% Tween 20. Then, solutions of 100 ng/ml biotinylated second antibody to IL-8 were made in blocking buffer, and 100 μl were added per well. The plates were incubated for 1 hour and washed again. […] OD was determined using microplate reader with a 450 nm filter.

With COC(=O)C(c1ccc(-c2ccccc2)cc1)C1CCCCN1 (stereo not drawn) [Cpd II] as the compound, how does the “Mean IL-8” value ([1]; 15 μg/ml) read?
The value was 400.35 pg/mL.

And the “Mean IL-8” value ([1]; 30 μg/ml)?
The value was 0 pg/mL.

And the “Effect of Cpd II on the protein in CD3/CD28 stimulated TRiPS cells” value [2]?
Its value is “Decreased level to below basal levels (Nil control)”.

And the “cell clumping induced by PHA” value [3]?
Its value is “reduced the amount of cell clumping induced by 5 μg/ml PHA in a dose-dependent manner”.

What about the IL-8 ([4]; 7016 HUVECs, LPS only 53.3) of the same compound?
The IL-8 was “Below detection”.

And the IL-8 ([4]; 9713 HUVECs, LPS only 485.0)?
The IL-8 was 49.8 pg/mL.

What about the “IL-8 release by the 7016 HUVECs (in words)” value ([4]; LPS 200 ng/ml + 15 μg/ml) of the same compound?
Its value is “complete eliminated IL-8 release”.

And the “decrease of IL-8 release in the 9713 HUVECs” value ([4]; LPS 200 ng/ml + 15 μg/ml)?
The value was 90%.

And the “IL-8 release induced by PHA” value [5]?
The value was “significantly inhibited IL-8 release induced by PHA”.
